Measurements: patent US6696495B2, “Treatment of disorders secondary to organic impairments” (Snowden Pharmaceuticals, LLC, priority 1998, dated 2004)

Legend:
[1] = system: Dementia, Alzheimer's-Type; assay: Case history 24; assay type: in vivo, human; details: before sibutramine
Protocol: 24. The Symptoms Due to Dementia, Alzheimer's-Type
person one was diagnosed with Dementia. The symptoms they suffered from included memory loss and severe confusion. They tried a variety of treatments to relieve their symptoms including choldine esterase inhibitors, antidepressants, Ritilin, and aterol. […] They were then tested off of sibutramine. […] They began to suffer from a lowered I.Q. and their memory deteriorated.

[2] = system: Severe Atypical Psychosis; assay: Case history 1, Sibutramine Patient No. 97; assay type: in vivo, human; details: treatments before sibutramine
[3] = system: Sexual Function, ADD, and Rage Outbursts; assay: Case history 3, Sibutramine Patient No. 100; assay type: in vivo, human; details: mood swings, cognitive, anger, sexual problems; before sibutramine
[4] = system: Sexual Gender Choice Change; assay: Case history 7, Sibutramine Patient No. 99; assay type: in vivo, human; details: depression; impulsive behaviors, mood swings, epileptic symptoms
[5] = system: Tourette's Disease Tics, Violence, and ADHD; assay: Case history 8, Sibutramine Patient No. 47; assay type: in vivo, human; details: over six years before sibutramine
[6] = system: Asocial Behavior, Violence, and Hyposexuality; assay: Case history 10, Sibutramine Patient No. 54; assay type: in vivo, human; details: before sibutramine
[7] = system: Severe Post-Traumatic Stress Reaction; details: for response of PTSD symptoms to other medications: before sibutramine
Protocol: Finally, this patient was taken off of fluoxetine 20 mg when sibutramine treatment was initiated.

[8] = system: Huntington's Disease; assay: Case history 12, Sibutramine Patient No. 113; assay type: in vivo, human; details: after worsening of symptoms
[9] = system: Tourette's Tics, Asocial Behavior, and Relief of Hyposexuality; details: before sibutramine
[10] = system: Non-Tourette's tics, obsessive-compulsive rituals, and attention deficit hyperactive disorder (ADHD); details: before sibutramine
[11] = system: Sexual Obsessive-Compulsive Behavior, ADD and Executive Function; assay: Case history 6, Sibutramine Patient No. 77; assay type: in vivo, human; details: before sibutramine
[12] = system: ADHD Refractory to Other Treatments; assay type: in vivo, human; details: for response of ADHD to other medications: four years before sibutramine; for side effects of other medications: human, in vivo
Protocol: 16. ADHD Refractory to Other Treatments (Problem No. 6) Sibutramine Patient No. 16
The amphetamines made their nervous, jittery, and unable to sleep. […] They were started on sibutramine 10 mg every morning by mouth. […] After the first month, their dose was changed to 5 mg three times daily due to a five hour duration of effects.

[13] = system: frontal lobe executive function, ADHD, and hyposexuality; details: human, in vivo
[14] = system: Torticollis, Lingual Dystonia and Dyskinesia; assay: Case history 23; assay type: in vivo, human; details: in vivo
[15] = system: Sexual Function and ADD; assay: Case history 4, Sibutramine Patient No. 109; assay type: in vivo, human; details: before sibutramine

COC(=O)C(c1ccccc1)C1CCCCN1 (stereo not drawn) [Ritilin]
response to other treatments [1]: None of these treatments had any effect on their symptoms

NC(=O)N1c2ccccc2C=Cc2ccccc21 [carbamazepine]
response of psychosis symptoms to other medications [2]: did not control their symptoms
response to other medications [3]: helped with their mood swings but not with their anger, sexual, or cognitive problems
response to other medications [4]: impulsive behaviors, mood swings, and epileptic symptoms were relieved
response to other medications [5]: without any good results
response to other medications [6]: without any changes in their speech or mode of communication
response of PTSD symptoms to other medications [7]: unsuccessful
response to previous medications [8]: no longer responded
response to other medications [9]: without success
response to other medications [10]: unsuccessful

C[C@H](N)Cc1ccccc1 [dextroamphetamine]
response to other medications [3]: unsuccessful
response to other medications [11]: unsuccessful
response of PTSD symptoms to other medications [7]: unsuccessful
response of ADHD to other medications [12]: without success
response to other medications [9]: without success

CNCCC(Oc1ccc(C(F)(F)F)cc1)c1ccccc1 (stereo not drawn) [fluoxetine]
response of psychosis symptoms to other medications [2]: without success
response to other medications [4]: refractory
depression ([7]; human, in vivo): the depression and PTSD were relieved
response to previous medications [8]: no longer responded
response to other medications [13]: unsuccessful

COC(=O)C(c1ccccc1)C1CCCCN1 (stereo not drawn) [methylphenidate]
response to other medications [3]: unsuccessful
response to other medications [11]: unsuccessful
response to other medications [4]: refractory
response to other medications [5]: without any good results
response to other medications [6]: without any changes in their speech or mode of communication
response of PTSD symptoms to other medications [7]: unsuccessful
response of ADHD to other medications [12]: without success
side effects of other medications [12]: made their sleepy
response to other medications [9]: without success
response to other medications [10]: initially treated successfully
response to other medications [13]: Initially their attention problems responded

botulinum toxin
response to other treatment [14]: only temporarily relieved their symptoms

magnesium pemoline
response to other medications [3]: not helpful
response to other medications [15]: unsuccessful
response to other medications [11]: unsuccessful
response to other medications [5]: without any good results
response of ADHD to other medications [12]: without success
side effects of other medications [12]: made their sleepy
response to other medications [9]: without success
